The results in this text go back to patent US6248754A, “Substituted isoquinoline derivatives and their use as anticonvulsants” (SmithKline Beecham, p.l.c., priority 1997, dated 2001).

Assay [1] relates to maximal (tonic hindlimb extension) electroshock seizures in male rats. In words: Maximal electroshock seizure (MEST) threshold test, rat model. It is filed as in vivo. Conditions: 2 mg/kg p.o. at 2 h, suspended in 1% methyl cellulose, statistically significant. Here is the method:
The maximal electroshock seizure (MEST) threshold test in rodents is particularly sensitive for detecting potential anticonvulsant properties^1. In this model, anticonvulsant agents elevate the threshold to electrically-induced seizures whilst proconvulsants lower the seizure threshold.
The threshold for maximal (tonic hindlimb extension) electroshock seizures in male rats (Sprague Dawley, 80-150 g, 6 weeks old) was determined by a Hugo Sachs Electronik stimulator which delivered a constant current (0.3 sec duration; from 1-300 mA in steps of 5-20 mA). The procedure is similar to that outlined above for mouse and full details are as published by Upton et al,.^4
The percentage increase or decrease in CC50 for each group compared to the control is calculated.
Drugs are suspended in 1% methyl cellulose.

In assay [2] the target is novel receptor obtainable from rat forebrain tissue. In words: Radioligand binding assay, displacement of [3H]-Compound A. Particulars: competition with 20 nM [3H]-Compound A, room temperature 1 hour. How it is done: The affinity of test compounds to the novel receptor site is assessed as follows. Whole forebrain tissue is obtained from rats. The tissue is first homogenised in buffer (usually 50 mM Tris/HCl, pH 7.4). The homogenised tissue is washed by centrifugation and resuspension in the same buffer, then stored at -70° C. until used. To carry out the radioligand binding assay, aliquots of tissue prepared as above (usually at a concentration of 1-2 mg protein/ml) are mixed with aliquots of [3H]-Compound A dissolved in buffer. The final concentration of [3H]-Compound A in the mixture is usually 20 nM. The mixture is incubated at room temperature for 1 hour. [3H]-Compound A bound to the tissue is then separated from unbound [3H]-Compound A by filtration through Whatman GF/B glass fibre filters. The filters are then washed rapidly with ice-cold buffer. The amount of radioactivity bound to the tissue trapped on the filters is measured by addition of liquid scintillation cocktail to the filters followed by counting in a liquid scintillation counter. In order to determine the amount of "specific" binding of [3H]-Compound A, parallel assays are carried out as above in which [3H]-Compound A and tissue are incubated together in the presence of unlabelled Compound A (usually 3 μM). The amount of binding of [3H]-Compound A remaining in the presence of this unlabelled compound is defined as "non-specific" binding. This amount is subtracted from the total amount of [3H]-Compound A binding (i.e. that present in the absence of unlabelled compound) to obtain the amount of "specific" binding of [3H]-Compound A to the novel site. The affinity of the binding of test compounds to the novel site can be estimated by incubating together [3H]-Compound A and tissue in the presence of a range of concentrations of the compound to be tested. The decrease in the level of specific [3H]-Compound A binding as a result of competition by increasing concentrations of the compound under test is plotted graphically, and non-linear regression analysis of the resultant curve is used to provide an estimate of compound affinity in terms of pKi value.
(In general: In a radioligand displacement assay an active substance lowers the binding of a labelled ligand.)

In the case of `CCOc1ccc(C(=O)Nc2ccc3c(c2Cl)CN(C)CC3)cc1Br` [Example 3, N-(8-chloro-2-methyl-1,2,3,4-tetrahydroisoquinolin-7-yl)-3-bromo-4-ethoxybenzamide], in assay [1], the “increase in CC50 compared to control” value was 160%. Moreover, the pKi result in assay [2] is listed as “greater than 7”. Regarding `COc1ccc(C(=O)Nc2ccc3c(c2Cl)CNCC3)cc1C(F)(F)F` [Example 5], in assay [1], the “increase in CC50 compared to control” value is recorded as 320%. The pKi entry in assay [2] is “greater than 7”. For `CCOc1ccc(C(=O)Nc2ccc3c(c2Cl)CNCC3)cc1Br` [Example 2, N-(8-Chloro-1,2,3,4-tetrahydroisoquinolin-7-yl)-3-bromo-4-ethoxybenzamide] the same measures were 120% and “greater than 7”. Regarding `CCc1c(NC(=O)c2ccc(OC)c(C(F)(F)F)c2)ccc2c1CN(C)CC2` [Example 15, N-(8-Ethyl-2-methyl-1,2,3,4-tetrahydroisoquinolin-7-yl)-4-methoxy-3-trifluoromethylbenzamide], the pKi result in assay [2] is “greater than 7”. For `COc1ccc(C(=O)Nc2ccc3c(c2Br)CNCC3)cc1C(F)(F)F` [Example 8, N-(8-Bromo-1,2,3,4-tetrahydroisoquinolin-7-yl)-4-methoxy-3-trifluoromethylbenzamide], the “increase in CC50 compared to control” value in assay [1] is 400%. Still for that read-out and setting: to `COc1ccc(C(=O)Nc2ccc3c(c2Br)CN(C)CC3)cc1C(F)(F)F` [Example 9, N-(8-Bromo-2-methyl-1,2,3,4-tetrahydroisoquinolin-7-yl)-4-methoxy-3-trifluoromethylbenzamide] belongs 340%; to `COc1ccc(C(=O)Nc2ccc3c(c2Cl)CN(C)CC3)cc1C(F)(F)F` [Example 6, N-(8-Chloro-2-methyl-1,2,3,4-tetrahydroisoquinolin-7-yl)-4-methoxy-3-trifluoromethylbenzamide], 260%. With `COc1ccc(C(=O)Nc2ccc3c(c2C=Cc2ccccc2)CNCC3)cc1C(F)(F)F` [Example 18, N-(8-Styryl-1,2,3,4-tetrahydroisoquinolin-7-yl)-4-methoxy-3-trifluoromethylbenzamide], the pKi entry in assay [2] is recorded as “greater than 7”. The same measure, in the same setting: to `CCc1c(NC(=O)c2ccc(OC)c(C(F)(F)F)c2)ccc2c1CNCC2` [Example 14, N-(8-Ethyl-1,2,3,4-tetrahydroisoquinolin-7-yl)-4-methoxy-3-trifluoromethylbenzamide] belongs “greater than 7”; to `COc1ccc(C(=O)Nc2ccc3c(c2C=Cc2ccccc2)CN(C)CC3)cc1C(F)(F)F.Cl` [Example 19, N-(8-Styryl-2-methyl-1,2,3,4-tetrahydroisoquinolin-7-yl)-4-methoxy-3-trifluoromethylbenzamide hydrochloride], “greater than 7”.
